Assays:
[1] = system: MCF-10A; test: Cytotoxicity against human MCF-10A cells assessed as inhibition of cell growth at 25 uM incubated for 72 hrs by MTT assay; format: toxicity, cell-based
[2] = Growth inhibition of human MCF-10A cells incubated for 72 hrs by MTT assay; format: toxicity, cell-based
[3] = system: ASPC1; test: Growth inhibition of human ASPC1 cells incubated for 72 hrs by MTT assay; format: functional
[4] = system: Capan-2; test: Growth inhibition of human Capan-2 cells incubated for 72 hrs by MTT assay; format: functional
[5] = system: HPAC; test: Growth inhibition of human HPAC cells incubated for 72 hrs by MTT assay; format: functional
[6] = system: MIA PaCa-2; test: Growth inhibition of human MIA PaCa-2 cells incubated for 72 hrs by MTT assay; format: functional
[7] = system: A-431; test: Growth inhibition of human A-431 cells incubated for 72 hrs by MTT assay; format: functional
[8] = system: DU-145; test: Growth inhibition of human DU-145 cells incubated for 72 hrs by MTT assay; format: functional
[9] = system: PANC-1; test: Growth inhibition of human PANC-1 cells incubated for 72 hrs by MTT assay; format: functional
[10] = system: MCF7; test: Growth inhibition of human MCF7 cells incubated for 72 hrs by MTT assay; format: functional
[11] = system: NCI-H460; test: Growth inhibition of human NCI-H460 cells incubated for 72 hrs by MTT assay; format: functional
[12] = system: A2780; test: Growth inhibition of human A2780 cells incubated for 72 hrs by MTT assay; format: functional
[13] = system: BXPC-3; test: Growth inhibition of human BXPC-3 cells incubated for 72 hrs by MTT assay; format: functional
[14] = system: HT-29; test: Growth inhibition of human HT-29 cells incubated for 72 hrs by MTT assay; format: functional
[15] = Growth inhibition of human SJG2 cells incubated for 72 hrs by MTT assay; format: functional; settings: SJ-G2
[16] = system: BE(2)-C; test: Growth inhibition of human BE2C cells incubated for 72 hrs by MTT assay; format: functional
[17] = system: U-87 MG; test: Growth inhibition of human U87 cells incubated for 72 hrs by MTT assay; format: functional, U-87MG ATCC

Row | GI50 [3] [nM] | GI50 [6] [nM] | GI50 [7] [nM] | GI50 [8] [nM] | GI50 [9] [µM] | GI50 [10] [nM] | GI50 [11] [nM] | GI50 [12] [nM] | GI50 [13] [nM] | GI50 [14] [nM] | GI50 [17] [nM] | SMILES | Activity [1] | GI50 at 72 h [2] [µM] | GI50 [4] [nM] | GI50 [5] [nM] | GI50 [15] [nM] | GI50 [16] [nM]
1 | 2500 | 2400 | 2600 | 2700 | 2.5 | 1700 | 2500 | 2600 | 1700 | 2300 | 2200 | O=S(=O)(NCCCNCc1ccc(-c2ccccc2)cc1)c1cc(C(F)(F)F)cc(C(F)(F)F)c1 | – | 2.8 | 2200 | 2700 | 2300 | 2600
2 | 6400 | 2800 | 7000 | 4000 | 18 | 1900 | 2400 | 3800 | 13000 | 2700 | 3400 | COc1ccc(CNCCCNS(=O)(=O)c2cc(C(F)(F)F)cc(C(F)(F)F)c2)cc1OC | – | 5.3 | 15000 | 3500 | 18000 | 3600

Second part, the compound before the results:

Row | SMILES | GI50 [3] [nM] | GI50 [6] [nM] | GI50 [7] [nM] | GI50 [8] [nM] | GI50 [9] [µM] | GI50 [10] [nM] | GI50 [11] [nM] | GI50 [12] [nM] | GI50 [13] [nM] | GI50 [14] [nM] | GI50 [17] [nM] | Activity [1] | GI50 at 72 h [2] [µM] | GI50 [4] [nM] | GI50 [5] [nM] | GI50 [15] [nM] | GI50 [16] [nM]
3 | O=S(=O)(NCCNCc1ccc(C(F)(F)F)cc1)c1cc(C(F)(F)F)cc(C(F)(F)F)c1 | – | – | – | – | – | – | – | – | – | – | – | Non-Toxic | – | – | – | – | –
4 | O=S(=O)(NCCNCc1ccc(Br)cc1)c1cc(C(F)(F)F)cc(C(F)(F)F)c1 | – | – | – | – | – | – | – | – | – | – | – | Non-Toxic | – | – | – | – | –
5 | O=S(=O)(NCCNCc1ccc(-c2ccccc2)cc1)c1cc(C(F)(F)F)cc(C(F)(F)F)c1 | 2800 | 2700 | 2400 | 2500 | 4.2 | 1400 | 2600 | 2600 | 1600 | 2700 | 1400 | – | 3.3 | 2400 | 2800 | 2500 | 2700
